Reference: patent US20100215653A1, “METHODS OF TREATING NEOPLASTIC, AUTOIMMUNE AND INFLAMMATORY DISEASES” (Seattle Genetics, Inc., priority 2006, published 2010)
“Also recorded” adds a separate entry of the source. Read-outs that look alike come from different tables or passages of the source.

Experiments:
HL-60 cells = test: HL-60 disseminated AML model in mice; type: in vivo
Method: Mice were implanted with an AML cell line, HL-60, as follows: 5 million HL-60 cells were injected intravenously. The mice were treated with lintuzumab (10 mg/kg, q4dx4, ip), cytarabine (1 mg/kg, 5 mg/kg or 25 mg/kg, q1dx10, ip; or 50 mg/kg or 100 mg/kg, q2dx5, ip) or lintuzumab with cytarabine (dosed as described previously). Treatment began on day one. Referring to FIG. 22, the control mice or mice treated with placebo (0.9% saline) were removed from the study by day 80, due to tumor progression.
To confirm the data of the in vitro study, mice were implanted with an AML cell line, HL-60, as follows: 5 million HL-60 cells were injected intravenously. […] Treatment began on day one. Referring to FIG. 24, the control mice were removed from the study by about day 60 due to tumor progression. Mice treated with lenalidomide were removed from study by about day 90 for similar reasons.
The MDR-negative HL60 cell line and the MDR-positive HEL9217 and TF1-α cell lines were used. […] Disease symptoms typically developed between about 35 and about 80 days, and included hind limb paralysis, scruffy coat, weight loss, palpable tumors, and/or tumor masses in bone, peritoneal cavity, or soft tissues. Human CD33+ tumor cells were detected in the blood, bone marrow, and lymph nodes of the majority of the mice by flow cytometry (FIG. 25). Solid tumors associated with bone or soft tissues were found in 20 to 60% of the mice.

[1] = tested on: relapsed and refractory acute myeloid leukemia (AML); details: low dose, infrequent administration; cited from earlier work
[2] = tested on: primary human CD14+ monocytes; test: Cell viability (CelltiterGlo) of primary human CD14+ monocytes; type: cell-based; details: 48 hours of exposure to increasing concentrations (FIG. 13)
Method: Macrophages were harvested, counted, and cultured in 96-well plates at 35,000 cells per well. G-CSF-mobilized CD14^+ monocytes (Cambrex) were cultured in 96-well plates at 100,000 cells per well (adherent cells) in sterile polypropylene dishes (non-adherent cells).

[3] = tested on: primary human macrophages; test: Macrophage migration in response to chemoattractants (CytoSelect Cell Migration Assay); type: cell-based
Method: The migration of macrophages in response to challenge with plating media containing 10% human serum, 20% conditioned tumor cell media, or 50 ng/ml TGF-β, VEGF, TNF-α, or IFN-γ was evaluated using the CytoSelect Cell Migration Assay (Cell Biolabs, San Diego, Calif.). […] The study was stopped 18 hours later and migration was evaluated after dissociation of the cells from the membrane followed by detection with Cyquant GR dye.
The migration of macrophages in response to challenge with plating media containing 10% human serum or 20% conditioned tumor cell media was evaluated using the CytoSelect Cell Migration Assay (Cell Biolabs, San Diego, Calif.). […] The studies were stopped 18 h later and migration was evaluated after dissociation of the cells from the membrane followed by detection with Cyquant GR dye.

human CD14+ monocytes = test: Cytokine, chemokine and growth factor production by human CD14+ monocytes; type: cell-based
Method: Tissue culture media was harvested 18 h later for cytokine analyses by ELISA or Searchlight (Pierce Endogen, Rockville, Ill.).

CD33 = CD33 (Homo sapiens, UniProt P20138); test: Apparent Kd by saturation binding using flow cytometry; set-up: endogenous in cells; host or cells: HL60, KG-1, HEL9217, TF1-α
Method: As a preliminary step, the AML cell lines HL60, KG-1, HEL9217 and TF1-α were assessed for multi-drug resistance (MDR) status and CD33 copy number. MDR status was determined by flow cytometry assessment of Rhodamine (Rh123) efflux at 37° C. […] CD33 copy number was determined by qFACs (DAKO QifiKit) and apparent Kd values by saturation binding measurements using flow cytometry.

AML tumor cells = test: ADCP, phagocytosis by monocyte-derived macrophages (flow cytometry); type: cell-based, human; details: MDR-positive and MDR-negative AML cells (FIG. 27B)
Method: (§1) Target AML tumor cells (KG-1 HEL9217, and TF1α) were labeled with Na^51CrO4 and mixed with enriched CD16^+ effector (NK) cells, prepared using PBMCs from normal donors. The effector to target cell ratio was 10:1. […] Macrophages were labeled with CD11b−FITC or CD14-FITC antibody. Flow cytometric analyses of dual labeled (PKH67+CD11b+ or PKH67+CD14+) cells was used to determine specific uptake (phagocytosis). […] Media were collected 18 h later and analyzed by ELISA for IL-8 or MCP-1.

[4] = tested on: advanced myeloid malignancies; test: Phase I single-arm dose escalation trial; type: in vivo, human
Method: Entry criteria included CD33 expression on >50% of the marrow blasts to ensure that adequate target antigen was present. […] Clinical response was assessed by bone marrow morphology and hematologic improvement. […] Among AML patients, 6 had antecedent hematologic disorder. Dosing cohorts included 1.5 (6), 2.5 (4), 4 (4), and 8 mg/kg (17).

[5] = tested on: AML tumor cells (KG-1 HEL9217, and TF1α); test: ADCC, 51Cr release assay with NK effector cells; type: cell-based, human; details: MDR-positive and MDR-negative AML cells; effector to target ratio 10:1 (FIG. 27A)
Method: as §1
Viable NK cells were pre-treated for 2 to 3 h with lenalidomide or thalidomide (as described in FIG. 23) prior to addition to target cells.

CD33, sequence (P20138 18-364): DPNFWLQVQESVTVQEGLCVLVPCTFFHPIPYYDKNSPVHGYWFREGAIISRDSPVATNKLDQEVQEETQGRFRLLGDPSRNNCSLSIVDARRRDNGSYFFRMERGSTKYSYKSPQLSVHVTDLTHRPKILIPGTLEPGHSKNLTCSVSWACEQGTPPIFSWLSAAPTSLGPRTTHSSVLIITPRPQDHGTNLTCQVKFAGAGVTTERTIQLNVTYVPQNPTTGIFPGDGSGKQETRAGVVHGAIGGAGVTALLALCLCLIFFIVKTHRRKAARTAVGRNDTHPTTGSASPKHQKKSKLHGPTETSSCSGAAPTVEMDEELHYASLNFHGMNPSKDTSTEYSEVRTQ

Substance: SGN-33: anti-CD33 antibody, a humanized version of mouse monoclonal antibody M195
- survival (HL-60 cells; HL60 model, SCID mice, q4dx4, p<0.005 (FIG. 26)): > 100 days
- increase of survival (HL-60 cells; MDR-negative HL60 model, 3 to 30 mg/kg, p<0.0001): > 100 days
- survival rate (HL-60 cells; SGN-33 30 mg/kg q4dx5 ip (FIG. 24)): ~85%
- survival rate (HL-60 cells; SGN-33 3 or 10 mg/kg q4dx5 ip (FIG. 24)): ~50%
- blast cells in patients [1]: induced significant reductions in blast cells
- cell viability of monocytes [2]: not due to an adverse effect; also recorded: does not affect the viability
- macrophage migration ([3]; 10% human serum or 20% conditioned media from RPMI 8226 cells, p<0.05 (FIG. 21)): significantly reduced the migration
- blocking of migration of neuraminidase-treated macrophages ([3]; SGN-33 added to neuraminidase-treated macrophages, serum or tumor cell conditioned media (FIG. 14C)): greater blocking effect
- basal and IFN-γ stimulated levels of IL-6, MCP-1, TNF-α, IL-8; IFN-γ stimulated level of RANTES (human CD14+ monocytes; adherent CD14+ monocytes, 48 h (FIG. 10)): reduced the basal levels and IFN-γ stimulated levels
- basal and conditioned media stimulated levels of IL-6, MCP-1, IL-8; conditioned media stimulated level of RANTES (human CD14+ monocytes; adherent CD14+ monocytes, RPMI-8228 conditioned media (FIG. 11)): reduced the basal levels and the RPMI-8228 conditioned media stimulated levels
- level of TNF-α (human CD14+ monocytes; adherent CD14+ monocytes, basal and RPMI-8228 conditioned media stimulated (FIG. 11)): reduced the basal level, but not the RPMI-8228 conditioned media stimulated level
- levels of IL-6, IL-8, TNF-α and MCP-1 (human CD14+ monocytes; non-adherent CD14+ monocytes exposed to SGN-33 (FIG. 12)): small increases
- production of cytokines, chemokines and growth factors (human CD14+ monocytes; non-adherent CD14+ monocytes, IFN-γ (FIG. 12)): not inhibited by SGN-33, except for the basal level of RANTES
- IFN-γ-stimulated production of IL-1β, IL-10, IL-12 and MIP-1α (human CD14+ monocytes; primary human monocytes treated 1 hr before IFN-γ, 18 h, p<0.001 (FIG. 19)): significantly reduced
- levels of TNF-α (human CD14+ monocytes; primary human monocytes, various doses 1 hr before IFN-γ, 18 h, p<0.05 (FIG. 20)): significantly reduced levels of TNF-α in a dose-dependent manner
- Kd (CD33; read-out: Kd (pM) for SGN-33, HEL9217 cells (MDR positive)): 144 ± 12 pM
- Kd (CD33; read-out: Kd (pM) for SGN-33, HL60 cells (MDR negative)): 123 ± 16 pM
- Kd (CD33; read-out: Kd (pM) for SGN-33, KG-1 cells (MDR negative)): 70 ± 20 pM
- Kd (CD33; read-out: Kd (pM) for SGN-33, TF1-α cells (MDR positive)): 99 ± 22 pM
- ADCP activity (phagocytosis) (AML tumor cells): antibody-dependent cell phagocytosis of MDR-positive and MDR-negative AML cells; also recorded: mediate phagocytosis of AML tumor cells
- Grade 4 adverse events considered related to antibody ([4]; 31 patients): none
- patients achieving CR ([4]; among 18 patients with AML): 4
- patients achieving CR with incomplete platelet recovery ([4]; among 18 patients with AML): 1
- accumulation ([4]; repeat dosing): documented with repeat dosing
- dose limiting toxicity ([4]; weekly iv 1.5 to 8 mg/kg for 5 weeks, 31 patients): has not been observed
- ADCC activity (cell lysis) [5]: mediated antibody-dependent cell cytotoxity; also recorded: mediate cell lysis of MDR− and MDR+AML tumor cell lines
